Experimental findings from PubChem BioAssay AID1996 are described below.

The structures appear in SMILES notation. In brackets after ≈: the same amount, converted by molar mass. Some results are limits rather than exact numbers.

In general, kinetic solubility refers to the concentration staying in solution when a stock, usually in DMSO, is diluted into the medium.

For the data set the following is noted: buffer; pH 7.4; 200.0 µM.
Compound `COc1ccc(NC(=O)NCc2ccc(Cl)cc2)cc1` showed a solubility (kinetic) of 0.3 µg/mL (≈ 1.03 µM). With `Cl.O=C(O)CC1NCCc2ccccc21` (stereo not drawn) the figure was more than 34.2 µg/mL; with `Cc1ccccc1C(=O)Nc1cccc(NC(=O)c2ccccc2[N+](=O)[O-])c1`, 1.2 µg/mL (≈ 3.2 µM); with `CCOC(=O)C(Cc1c(F)cccc1Cl)c1ccno1` (stereo not drawn), 29.6 µg/mL (≈ 99.4 µM). The compound `CC(C)(C)C(=O)N(Cc1ccc(Cl)cc1)c1cnccn1` registered a kinetic solubility of more than 45.6 µg/mL. On to `Cc1ccc(C(=O)Nc2ccc(N3CCN(C)CC3)cc2)c(Cl)c1`, for which the kinetic solubility is more than 51.6 µg/mL. In the case of `CCOc1ccc(NC(=O)N2CCc3ccccc3C2)cc1` it was 3.7 µg/mL (≈ 12.5 µM); in that of `COc1cc(C(=O)NCCNC(=O)c2cnccn2)cc(OC)c1OC`, 39.4 µg/mL (≈ 109 µM).

In the case of `Cc1cccc(Oc2nc(-c3ccccn3)nc3ccccc23)c1`, the solubility (kinetic) was 27.6 µg/mL (≈ 88.1 µM). This solubility kinetic and that of the compound before are within 1.5-fold of each other. With `CC(C)NC(=O)c1ccccc1NC(=O)C1CC(=O)N(C(C)C)C1` (stereo not drawn) the figure was more than 49.7 µg/mL; with `Cc1ccc(C(C)C)c(OCCCCCN2CCOCC2)c1`, 12.8 µg/mL (≈ 41.9 µM).

The compound `CC(=O)Nc1nc2c(ccc3ccccc32)s1` returned a kinetic solubility of 0.9 µg/mL (≈ 3.71 µM). For the compound `COc1ccc(CNC(=S)Nc2ccccc2)cc1`, the solubility (kinetic) was more than 40.9 µg/mL. In the case of `CCc1ccc(OC(=O)CN2C(=O)c3ccccc3C2=O)cc1` it was 39.3 µg/mL (≈ 127 µM); in that of `N#Cc1cc2ccccc2nc1N`, more than 25.4 µg/mL; in that of `N#Cc1c(-c2ccc(F)cc2)c2c([nH]c1=O)-c1ccccc1OC2`, 1.2 µg/mL (≈ 3.77 µM).

Compound `O=S(=O)(NCc1ccccn1)c1cc(Cl)ccc1Cl` had a solubility (kinetic) of more than 47.6 µg/mL.

Compound `O=C(NCCN1CCOCC1)NC1(C(F)(F)F)Oc2ccc(Cl)cc2O1` (stereo not drawn) gave a kinetic solubility of more than 59.4 µg/mL. In the case of `COc1cc(C(=O)N2CCc3ccccc32)cc(OC)c1OC` it was 40.8 µg/mL (≈ 130 µM).

Consider `Cl.O=c1cc(CN2CCNCC2)nc2sccn12`, for which the kinetic solubility worked out at 44 µg/mL. This solubility kinetic and that of the compound before are within 1.5-fold of each other.

On to `O=C(N/N=C/c1ccco1)c1ccc2nc[nH]c2c1`, for which the kinetic solubility is more than 38.1 µg/mL. As for `Cc1ccc(S(=O)(=O)Nc2ccc(S(=O)(=O)Nc3nccs3)cc2)cc1C`, the kinetic solubility was more than 63.5 µg/mL. Take `O=C(COC(=O)c1ccc(Cl)nc1)Nc1ccc(N2CCCCC2)cc1`: the solubility (kinetic) was 10.9 µg/mL (≈ 29.2 µM). With `O=S(=O)(NCC1CCCO1)c1ccc(Cl)nc1` (stereo not drawn) the figure was more than 41.5 µg/mL; with `Cc1nc(Nc2ccccc2)sc1C(=O)c1ccccc1`, 2.1 µg/mL (≈ 7.13 µM). In the case of `COC(=O)c1ccc(CN2C(=O)C3CCCCC3C2=O)o1` (stereo not drawn) it was more than 43.7 µg/mL; in that of `OC1CCCCC1N1CCC(c2ccccc2)CC1` (stereo not drawn), more than 38.9 µg/mL; in that of `O=S(=O)(c1ccc(F)cc1)N1CCCC1c1cccnc1` (stereo not drawn), more than 46 µg/mL. In the case of `O=C1C(c2ccccc2)NC(=S)N1C1CCCCC1` (stereo not drawn) it was 2.4 µg/mL (≈ 8.75 µM); in that of `CC(=O)N1Cc2ccccc2CC1C(=O)NCc1ccccc1F` (stereo not drawn), more than 49 µg/mL; in that of `Cn1c(=O)oc2cc(S(=O)(=O)Nc3ccccc3F)ccc21`, 15.6 µg/mL (≈ 48.4 µM). Compound `O=C(O)CC(NC(=O)C12CC3CC(CC(C3)C1)C2)c1ccc(F)cc1` (stereo not drawn) yielded a solubility (kinetic) of more than 51.8 µg/mL.

Regarding `O=C(NC1CCN(C(=O)NCc2ccccc2)CC1)c1ccc(F)cc1`, the kinetic solubility came out at 9.3 µg/mL (≈ 26.2 µM). With `Cc1cc(C)c(C(=O)COC(=O)c2cccnc2Cl)c(C)c1`, the solubility (kinetic) was 7.3 µg/mL (≈ 23 µM).

`COc1ccc(C(=O)O)cc1S(=O)(=O)NCCN(C)C` showed a kinetic solubility of 44.1 µg/mL (≈ 146 µM). Compared with the last compound, the solubility kinetic is about 6-fold higher. With `COc1ccccc1/C=C/C(=O)OCC(=O)Nc1ccc(Cl)cn1` the figure was 1.1 µg/mL (≈ 3.17 µM).

The compound `COc1ccc(C(=O)N[C@H](C(=O)Nc2sccc2C(N)=O)C(C)C)cc1` registered a kinetic solubility of more than 56.3 µg/mL.

Compound `Cc1c(NC(=O)Nc2ccc3c(c2)OCO3)cccc1[N+](=O)[O-]` showed a solubility (kinetic) of 0.8 µg/mL (≈ 2.54 µM).

In the case of `O=C(NCc1ccccc1F)C(c1ccccc1)c1ccccc1`, the solubility (kinetic) came to 0.9 µg/mL (≈ 2.82 µM). Compound `S=C(NCc1cccs1)NCC1CCCO1` (stereo not drawn) yielded a solubility (kinetic) of more than 38.5 µg/mL. In turn, `Cc1ccc(C2(c3noc(CN4CCOCC4)n3)CCCC2)cc1` yielded a solubility (kinetic) of 41.3 µg/mL (≈ 126 µM). With `O=C(Nc1cccc(Cl)c1)Nc1cccc(C(=O)O)c1` the figure was more than 43.6 µg/mL.

`Cn1c(N)c(C(=O)COC(=O)c2ccccc2C(=O)c2ccc(Cl)c([N+](=O)[O-])c2)c(=O)n(C)c1=O` had a kinetic solubility of 3.2 µg/mL (≈ 6.39 µM).

Turning to `Cc1ccc(N(Cc2ccccc2)C(=O)CN2C(=O)NC3(CCCC3)C2=O)cc1`, the solubility (kinetic) was more than 58.7 µg/mL. With `O=C(CN1C(=O)NC2(CCCC2)C1=O)Nc1cccc(Cl)c1` the figure was more than 48.3 µg/mL; with `CCOC(=O)C1CCN(C(=O)C(C)Sc2nnc3ccccn23)CC1` (stereo not drawn), more than 54.4 µg/mL; with `CCNC(=S)Nc1ccc(OC(F)(F)F)cc1`, more than 39.6 µg/mL.

As for `Cc1cc(=O)oc2cc(OCCSCCN3CCCCC3)ccc12`, the kinetic solubility was more than 52.1 µg/mL. With `O=C(Cc1cccs1)NCc1cccc(Cl)c1` the figure was more than 39.9 µg/mL; with `CCCn1c(SCC(=O)NC2CCCC2)nnc1-c1cccnc1`, more than 51.8 µg/mL; with `COc1ccc(CNC(=O)COC(=O)c2ccccn2)cc1`, more than 45 µg/mL.

`Cl.O=C(CN1CCCC1)N1c2ccccc2C=Cc2ccccc21` came in with a kinetic solubility of more than 51.1 µg/mL. The compound `Cc1cc(NC(=O)COc2ccc3ccccc3c2Br)no1` returned a solubility (kinetic) of 14.4 µg/mL (≈ 39.9 µM).

`O=S(=O)(c1ccc(SCCO)nc1)N1CCOCC1` had a solubility (kinetic) of more than 45.7 µg/mL. In the case of `CCN1CCN(c2nc3c(c(=O)[nH]2)CCC3)CC1` it was 36.1 µg/mL (≈ 145 µM). With `CCOC(=O)CCCNC(=O)CCNC(=O)c1ccc(OCC(C)C)cc1` the figure was more than 56.8 µg/mL; with `COc1ccc(S(=O)(=O)n2ccnc2C)c(C)c1C`, more than 42.1 µg/mL. With `Cn1c(=O)[nH]c2nc[nH]c2c1=O` the figure was more than 24.9 µg/mL. On to `S=C(Nc1cccnc1)Nc1ccccn1`, for which the kinetic solubility is more than 34.5 µg/mL. In the case of `O=C(COC(=O)c1ccc(Cl)cc1)NC(=O)NC1CCCC1` it was 5.7 µg/mL (≈ 17.6 µM); in that of `CC1(C)N2CC3([N+](=O)[O-])CN1CC([N+](=O)[O-])(C2)C3`, 34.5 µg/mL (≈ 135 µM).

Consider `COc1ccc(N2C(=O)/C(=C/c3ccco3)C(=O)NC2=S)cc1`, for which the solubility (kinetic) is 48.8 µg/mL (≈ 149 µM). With `Cn1ncc(Cl)c1C(=O)Nc1ccc(CN2CCCCC2)cc1` the figure was more than 49.9 µg/mL.

Compound `Cc1cc(SCC(=O)c2ccc(O)c(O)c2)nc2ccccc12` displayed a kinetic solubility of 3.5 µg/mL (≈ 10.8 µM).

Regarding `O=C(NCc1ccc(Cl)cc1)C1CCCO1` (stereo not drawn), the kinetic solubility is more than 36 µg/mL.

For `COc1ccccc1C(=O)OCC(=O)c1ccc(CNC(C)=O)s1`, the solubility (kinetic) amounted to 50.1 µg/mL (≈ 144 µM). As to `CC1=C(C(=O)OC(C)C)C(c2ccccc2)NC(=O)N1C` (stereo not drawn), the kinetic solubility was more than 43.3 µg/mL. In the case of `O=C(O)CC/C(=N\NC(=O)CNC(=O)/C=C/c1ccccc1)c1ccccc1` it was more than 56.9 µg/mL; in that of `COc1cc2c(cc1OC)C(NC(=O)C(F)(F)F)CNC2=O` (stereo not drawn), more than 47.7 µg/mL. In the case of `CCOC(=O)c1ccc(NC(=O)NCc2ccccc2OC)cc1` it was 2.4 µg/mL (≈ 7.31 µM); in that of `COc1ccc2oc(=O)c(N3C(=O)c4ccccc4C3=O)cc2c1`, 1.2 µg/mL (≈ 3.73 µM). In turn, `COc1ccc(NC(=O)COC(=O)CNC(=O)C2CCCCC2)cc1OC` had a solubility (kinetic) of more than 56.8 µg/mL. On to `CCOC(=O)c1cnc2c(ccc3ccccc32)c1NCCCN(C)C`, for which the kinetic solubility is 46.1 µg/mL (≈ 131 µM). In the case of `Cc1cc(Cl)ccc1OC(C)C(=O)OCC(=O)c1ccc[nH]1` (stereo not drawn) it was 4 µg/mL (≈ 12.4 µM); in that of `COC(=O)c1c(O)cc(=O)n2c1CCCCC2`, 33.3 µg/mL (≈ 140 µM).

For the compound `COc1ccc(Cl)cc1NC(=O)Nc1cc(C)on1`, the kinetic solubility was determined as 0.9 µg/mL (≈ 3.19 µM). With `CCN(CC)CC(=O)Nc1sc(C)cc1C(=O)c1ccc(C)cc1` the figure was 0.4 µg/mL (≈ 1.16 µM). As to `CN(C)c1cccc(C(=O)OCC(=O)c2ccc[nH]2)c1`, the kinetic solubility is more than 40.8 µg/mL. In the case of `CN(CC(=O)Nc1cccc(F)c1)CC(=O)N(C)c1c(N)n(Cc2ccccc2)c(=O)[nH]c1=O` it was more than 70.3 µg/mL; in that of `Cc1ccc(C(=O)OCc2nc3ccsc3c(=O)[nH]2)o1`, more than 43.5 µg/mL. `NS(=O)(=O)c1ccc(NC(=O)c2c(F)cccc2Cl)cc1` displayed a solubility (kinetic) of 13.3 µg/mL (≈ 40.5 µM).

The compound `O=[N+]([O-])c1ccc2c(c1N1CCCCC1)=NC1(CCCCC1)[N+]=2[O-]` returned a kinetic solubility of 47.1 µg/mL (≈ 143 µM). With `CCC(C)n1c(C)cc(C(N)=O)c1C` (stereo not drawn) the figure was 26.8 µg/mL (≈ 138 µM); with `Cc1ccc(NC(=O)CN2C(=O)NC3(CCCc4ccccc43)C2=O)c(Cl)c1` (stereo not drawn), 47 µg/mL (≈ 118 µM); with `COc1ccc(NC(=O)COCC(=O)Nc2ccc(C)cc2)cc1`, 44.3 µg/mL (≈ 135 µM).

In turn, `COc1cccc(NC(=O)N2CCCC2C(=O)NCc2ccco2)c1` (stereo not drawn) came in with a kinetic solubility of 47.6 µg/mL (≈ 139 µM). In the case of `CSCCC(=O)N1CCCC(CO)(CCCc2ccccc2)C1` (stereo not drawn) it was 31.7 µg/mL (≈ 94.5 µM); in that of `Cc1cn2c(N)c(/C=C3\C=Nc4ccccc43)c(=O)nc2s1`, less than 0.2 µg/mL. With `Cn1cnc(S(=O)(=O)Nc2ccc3c(c2)OCCO3)c1`, the solubility (kinetic) is 30.2 µg/mL (≈ 102 µM). With `CCOC(=O)c1cnc(SCC(=O)NNC(=O)c2ccco2)nc1N` the figure was more than 54.8 µg/mL. The compound `O=C(NCc1ccc(F)cc1F)Nc1cnccc1C(F)(F)F` had a solubility (kinetic) of more than 49.7 µg/mL. `Oc1ccc(N=Cc2c(O)ccc3ccccc23)cc1` gave a kinetic solubility of less than 0.6 µg/mL.

As to `CC(=O)Nc1ccc(NC(=O)COC(=O)c2ccc([N+](=O)[O-])o2)cc1`, the solubility (kinetic) is more than 52.1 µg/mL.

The compound `COc1cc(/C=C/C(=O)OCC(=O)NCC2CCCCC2)ccc1O` showed a kinetic solubility of more than 52.1 µg/mL. With `CCN(CC)c1nc(N)n(CCSC(=S)N(C)C)c(=O)n1` the figure was 45.1 µg/mL (≈ 136 µM). `CCc1cc2c(Nc3ccccc3O)nc(C)nc2s1.Cl` came in with a kinetic solubility of less than 0.2 µg/mL. In the case of `COc1ccccc1NS(=O)(=O)c1ccc2[nH]c(=O)[nH]c2c1` it was more than 47.9 µg/mL; in that of `CCOc1ccc(C(=O)C(C)OC(=O)c2cnc(C)cn2)cc1` (stereo not drawn), more than 47.2 µg/mL.

In turn, `Cc1ccc(C(=O)Nc2ccccc2)cc1S(=O)(=O)N1CCN(C)CC1` yielded a solubility (kinetic) of 31.8 µg/mL (≈ 85.1 µM). With `O=C(NCC(=O)N1CCN(c2ncccn2)CC1)c1ccccc1F` the figure was more than 51.5 µg/mL; with `CCOc1ccccc1NC(=O)COC(=O)CN1C(=O)NC(C)(C)C1=O`, more than 54.5 µg/mL.

The compound `CC1CCN(C(=O)c2ccc(N3C(=O)c4ccccc4C3=O)cc2)CC1` showed a kinetic solubility of 33.5 µg/mL (≈ 96.2 µM).

As to `CCCCn1c(=O)c(C(C)=O)c(O)c2ccccc21`, the solubility (kinetic) amounted to 26.6 µg/mL (≈ 103 µM).
